Laboratory results as given in US12576097B2, “Anti-tumor effective component of Hedyotis diffusa, preparation method therefor and use thereof” (Guangdong New Ear Life Technology Co., Ltd., priority 2020, dated 2026).
Entries after “also recorded” stand apart in the source; their conditions may differ. Marks after values point to notes of the source that are not given here.

How the values were obtained:
[1] = test system: Solid tumor cell line S180; test: In-vivo anti-tumor experiment of E-6-O-(p-coumaroyl)scandoside methyl ester and its metabolite p-coumaric acid (S180 tumor); parameters: species or system ICR mice; conditions: 10 mg/kg by gavage, 9 days; for relative tumor weight mean ± SD: S180 tumor-bearing ICR mice; for inhibition rate: vs model group
Method: (§1) The experimental instruments were placed in a clean table and sterilized for about 30 min by turning on a UV lamp. The mice that were injected with ascites (about one week) were sacrificed by cervical dislocation, and abdomens of the mice were wiped with an alcohol swab. A 20 ml syringe was selected to suck the ascites (milky white is preferred) from the mice. The sucked ascites were placed in a sterile vial, and the vial was placed in a small box with ice. A certain amount of ascites was sucked onto a counting plate and placed under a microscope for counting, and the number of the cells was 10^7 as a base for tumor inoculation (1:2) and passage (1:5).
(§2) The adaptively fed ICR class II male mice were taken, and wiped with an alcohol swab on the armpit areas of the right forelimbs. The axillary cavities of the right forelimbs of the mice were inoculated with diluted mice ascite cell (10^7 cells) suspension at 0.2 ml per mouse. After tumor inoculation, the mice were fed and watered freely. One hour later, the drug was administered by gavage.
30 ICR class II male mice with a weight of 18-22 g were used. The mice were adaptively fed for four days under the conditions of the item 2.2 before the experiment. After four days, the mice were weighed and their autonomy was measured. The ICR mice were randomly divided into three groups, namely: a model group, methyl ester 10, p-coumaric acid 10, 10 mice in each group. Each mouse was inoculated with S180 tumor according to the method of the item 2.3, and the drug was administered by gavage after inoculation.
The appropriate amount of test samples were weighed precisely and prepared into test sample solutions having the desired concentrations by using a 5 vol % ethanol aqueous solution as a solvent, i.e.: E-6-O-(p-coumaroyl)scandoside methyl ester of 10 mg/kg; p-coumaric acid of 10 mg/kg. […] The blank group was given a solvent, the positive drug control group was given the cyclophosphamide solution, and the other groups were given the corresponding drugs and doses. Each mouse was administered by gavage at a dose of 0.2 ml/10 g. The mice were fed at 3 g/mouse and ingested water and food freely during the administration period. All mice were continuously administered for 9 days and sacrificed by decapitation on day 10. Blood, tumor, liver, spleen and thymus of the mice were collected. The blood obtained was placed in a low-temperature environment and sent out for blood check. The weight of the tumor, liver, spleen and thymus and the size of the tumor were recorded.
(§3) The recorded results were expressed as mean plus or minus standard deviation (X±SD), and the data were analyzed by using statistical software SPSS 11.5 software.

[2] = Spleen and thymus weight and blood count of S180 tumor-bearing mice; type: in vivo, ICR mice; conditions: for relative spleen weight compared with model group: FIG. 5; for relative thymus weight compared with model group: FIG. 6; for number of leukocytes compared with model group: FIG. 7; for percentage of lymphocytes compared with model group: FIG. 8
Method: (§4) 168 ICR class II male mice with a weight of 18-22 g were used. The mice were kept under the conditions of the item 2.2 for adaptive feeding for four days before the experiment. After four days, the mice were weighed and their autonomy was measured. […] Each mouse was inoculated with S180 tumor according to the method in the item 2.3, and the drug was administered by gavage after inoculation.
(§5) A appropriate amount of test samples were weighed precisely, and prepared into test sample solutions having the desired concentrations by using a 5 vol % ethanol aqueous solution as a solvent, i.e.: the effective parts of 5 mg/kg, 10 mg/kg and 20 mg/kg correspond to the test sample solutions of the groups of the effective part 5, effective part 10, and effective part 20, respectively; E-6-O-(p-coumaroyl)scandoside methyl ester of 2.5 mg/kg, 5 mg/kg, 10 mg/kg, and 20 mg/kg correspond to the test sample solutions of the groups of methyl ester 2.5, methyl ester 5, methyl ester 10 and methyl ester 20, respectively; kaempferol-3-O-[2-O-(6-O-E-feruloyl)-β-D-glucopyranosyl]-β-D-galactopyranose of 2.5 mg/kg, 5 mg/kg, 10 mg/kg and 20 mg/kg correspond to the test sample solutions of the groups of kaempferol 2.5, kaempferol 5, kaempferol 10 and kaempferol 20, respectively. […] Each mouse was administered by gavage at a dose of 0.2 ml/10 g. During the administration period, the mice were fed at 3 g/mouse and ingested water and food freely. All mice were continuously administered for 9 days, and sacrificed by decapitation on day 10. Blood, tumor, liver, spleen, and thymus of mice were collected. The blood collected was placed in a low temperature environment and sent out for blood check. The weight of the tumor, liver, spleen, and thymus and the size of the tumor were recorded.
as §3

[3] = test system: Solid tumor cell line S180; test: In-vivo anti-tumor experiment after S180 tumor inoculation in mice; parameters: species or system ICR mice; conditions: 9 days; for relative tumor weight mean ± SD: S180 tumor-bearing ICR mice; for inhibition rate: vs model group; for best dose for tumor inhibition: dose with the highest inhibition rate, gavage
Method: Solid tumor cell line S180 cryopreservation tube were taken out from a liquid nitrogen tank and quickly placed into water at 37° C. with occasional shaking. After cryopreserved cell mother liquor was thawed, the lid edge of the cryopreservation tube was wiped with an alcohol swab. The thawed cell liquor was injected intraperitoneally into the peritoneal cavities of ICR mice by a syringe. The mice were kept at room temperature of 25±5° C., humidity of 60±10%, natural light, and free to ingest food and water. After about one week, ascites in the peritoneal cavities of the ICR mice were sucked by a syringe and injected into the peritoneal cavities of new ICR mice at a dose of 0.5 ml per mouse for passage for standby application.
ICR class II mice, weighing about 18-22 g. Feeding conditions: room temperature of 25±5° C., humidity of 60±10%, natural light, free intake of water, and all mice were kept in the feeding environment for adaptive feeding for four days, fasted for 12 h before the experiment, free intake of water.
as §1, §2, §4, §5

[4] = test system: human liver cancer Hep-G2 cells; test: Inhibition rate on human liver cancer Hep-G2 cells (CCK-8); type: cell-based; conditions: 24 h; for inhibition rate: 3 mg/mL drug solutions
Method: A cryopreservation tube containing liver cancer Hep-G2 cells was taken out from a liquid nitrogen tank, quickly placed in a water bath at 38-39° C., and continuously shaken to be fully thawed within 1 min. The cryopreservation tube was centrifuged at 800 r/min for 9 min, and sprayed with 75% alcohol on the outside thereof, and then put into a ultra-clean table. The resulting supernatant was sucked and discarded. 1 ml of DMEM complete medium was added, and a mixture of the cells and the DMEM complete medium was blown evenly, and then the cells were transferred to a 25 ml culture dish. 6-8 ml of DMEM complete medium was added, and a mixture of the cells and the DMEM complete medium was gently blown evenly, and put into a constant temperature incubator at 37° C. with 5% CO2.
The old medium in the item 2.1 was sucked out. 2 ml of PBS buffer solution was added, and the cells were washed by gently shaking the culture flask. The PBS buffer solution was sucked out to remove the loose, dead and senescent cells and their metabolic wastes, and the cells were washed for 2-3 times. 2 ml of trypsin was added, and the culture dish was gently shaken for 30 s. After the trypsin was sucked out, the culture dish was put into the incubator for full digestion for 3 min, and 2 ml of fresh DMEM complete culture was added. The cells were gently blown and dispersed into individual cells under a microscope, and then 6-8 ml of fresh DMEM complete medium was added and the cells were incubated in a constant temperature incubator.
2 mL trypsin was added into the cells cultured in the item 2.2 in the logarithmic growth phase and the cells were digested for 30 s. After the trypsin was sucked out, the culture dish was placed into the incubator for full digestion for 3 min, and 2 mL of fresh medium was added. The cells were gently blown to disperse the cells into individual cells under the microscope. 10 μL of cell suspension and 10 μL of 0.4% Trypan blue staining solution were mixed well to fully stain the cells. 10 μL of the stained cell suspension was added to a cell counting plate, and the number of cells was counted by a fully automatic cell counter. The cell suspension was diluted to 2×10^5 cells/mL with a DMEM complete medium. 100 μL of cell suspension was sucked with a multichannel pipette and seeded into a 96-well plate and incubated in a constant temperature incubator at 37° C. with 5% CO2 for 24 h.
30 mL of DMEM complete medium was accurately measured, 30 μL of DMSO was added, and uniform mixing was conducted to prepare 0.1% DMSO medium. […] The kaempferol solution and the methyl ester solution having the above concentrations were uniformly mixed to prepare drug solutions having the desired ratio based on the mass ratio of kaempferol to methyl ester being 1:1, 1:2, 1:3, 1:4, 1:5, 5:1, 4:1, 3:1 and 2:1, 400 μL of each drug solution. 1 mg/mL of 5-fluorouracil solution was diluted to a concentration of 800, 600, 400, 200, 100, 50, 25 μg/mL, respectively, 400 μL of each drug solution.
The old medium in the 96-well plate in the item 2.3 was sucked out, and 100 μL of PBS buffer solution was added to each well to remove the loose, dead and senescent cells and their metabolic wastes. After that, the PBS buffer solution was sucked out. 100 μL of the prepared drug solution was added to each well, 3 wells in parallel. A negative control was set up, in which an equal volume of DMEM complete medium containing 0.1 vol % DMSO was added to each well, 3 wells in parallel. A blank control was a DMEM complete medium containing 0.1 vol % DMSO free of cells, 3 wells in parallel. The cells were incubated for 24 h in a constant temperature incubator at 37° C. with 5% CO2.
The DMEM complete medium containing 0.1 vol % DMSO in the drug solutions and negative control in the 96-well plate in the item 2.5 were sucked out. […]

Row | Compound | relative tumor weight mean ± SD [1] | inhibition rate [1] | relative spleen weight compared with model group ([2]; 5 mg/kg) | relative thymus weight compared with model group ([2]; 5 mg/kg) | number of leukocytes compared with model group ([2]; 5 mg/kg) | percentage of lymphocytes compared with model group ([2]; 5 mg/kg) | relative tumor weight mean ± SD ([3]; 2.5 mg/kg by gavage) | inhibition rate ([3]; 2.5 mg/kg by gavage) | relative tumor weight mean ± SD ([3]; 5 mg/kg by gavage) | inhibition rate ([3]; 5 mg/kg by gavage) | relative tumor weight mean ± SD ([3]; 10 mg/kg by gavage) | inhibition rate ([3]; 10 mg/kg by gavage) | relative tumor weight mean ± SD ([3]; 20 mg/kg by gavage) | inhibition rate ([3]; 20 mg/kg by gavage) | best dose for tumor inhibition [3] | inhibition rate ([4]; 1st measurement) | inhibition rate ([4]; 2nd measurement) | inhibition rate ([4]; 3rd measurement) | also measured
1 | COC(=O)C1=COC(O[C@@H]2O[C@H](CO)[C@@H](O)[C@H](O)[C@H]2O)C2C(CO)=CC(OC(=O)/C=C/c3ccc(O)cc3)C12 (stereo partly drawn) [Methyl ester, E-6-O-(p-coumaroyl)scandoside methyl ester] | 4.65 ± 3.29* 10^−2 | 36.59% | increase | increase | significant increase; also recorded: highest | increased most significantly | 6.49 ± 1.56* 10^−2 | 21.92% | 4.24 ± 2.24* 10^−2 | 48.97% | 5.81 ± 2.19* 10^−2 | 30.17% | 5.98 ± 1.19* 10^−2 | 28.06% | 5 mg/kg | 7.558% | 5.565% | 7.273% | number of erythrocytes compared among groups ([2]; 5 mg/kg): highest; inhibition rate ([3]; 5 mg/kg by gavage, listed as E-6-O-(p-coumaroyl)scandoside methyl ester): 48.97%
2 | O=P1(N(CCCl)CCCl)NCCCO1 (stereo not drawn) [Positive control, Cyclophosphamide, reference compound] | – | – | – | – | – | – | – | – | – | – | – | – | 3.56 ± 0.77* 10^−2 | 57.19% | – | – | – | – | number of erythrocytes compared with model group ([2]; 20 mg/kg): lower; relative spleen weight compared with model group ([2]; 20 mg/kg): decrease; also recorded: lower; relative thymus weight compared with model group ([2]; 20 mg/kg): increase; number of leukocytes compared with model group ([2]; 20 mg/kg): significant decrease; also recorded: lower; percentage of lymphocytes compared with model group ([2]; 20 mg/kg): increase
3 | O=C(O)/C=C/c1ccc(O)cc1 [p-coumaric acid, reference compound] | 6.07 ± 2.91* 10^−2 | 17.20% | – | – | – | – | – | – | – | – | – | – | – | – | – | – | – | – | –
4 | O=c1[nH]cc(F)c(=O)[nH]1 [5-Fluorouracil, 5-fluorouracil] | – | – | – | – | – | – | – | – | – | – | – | – | – | – | – | – | – | – | inhibition at 25 µg/mL ([4]; Homo sapiens, HepG2, 25 μg/mL): 7.34%; inhibition at 50 µg/mL ([4]; Homo sapiens, HepG2, 50 μg/mL): 11.3%; inhibition at 100 µg/mL ([4]; Homo sapiens, HepG2, 100 μg/mL): 13.9%; inhibition at 200 µg/mL ([4]; Homo sapiens, HepG2, 200 μg/mL): 17.8%; inhibition at 400 µg/mL ([4]; Homo sapiens, HepG2, 400 μg/mL): 39.5%; inhibition at 600 µg/mL ([4]; Homo sapiens, HepG2, 600 μg/mL): 56.1%; inhibition at 800 µg/mL ([4]; Homo sapiens, HepG2, 800 μg/mL): 61.5%; inhibition at 1000 µg/mL ([4]; Homo sapiens, HepG2, 1000 μg/mL): 68%
5 | kaempferol-3-O-[2-O-(6-O-E-feruloyl)-β-D-glucopyranosyl]-β-D-galactopyranose | – | – | increase | increase | significant decrease | increase | 7.01 ± 1.56 10^−2 | 15.76% | 4.49 ± 1.95 10^−2 | 45.96% | 6.04 ± 2.78 10^−2 | 27.36% | 5.59 ± 1.96 10^−2 | 32.75% | 5 mg/kg | 18.7% | 12.07% | 19.28% | inhibition rate ([3]; 5 mg/kg by gavage, listed as kaempferol-3-O-[2-O-(6-O-E-feruloyl)-β-D-glucopyranosyl]-β-D-galactopyranose): 45.96%
